Results on three compounds are retold here after ChEMBL document CHEMBL4304775, “Identification and characterization of a novel chemotype for human TLR8 inhibitors” (Eur J Med Chem, 2019).

Experiment [1] deals with T1, Toll-like receptor 7 (Homo sapiens) (UniProt Q9NYK1).
T1 sequence (whole entry): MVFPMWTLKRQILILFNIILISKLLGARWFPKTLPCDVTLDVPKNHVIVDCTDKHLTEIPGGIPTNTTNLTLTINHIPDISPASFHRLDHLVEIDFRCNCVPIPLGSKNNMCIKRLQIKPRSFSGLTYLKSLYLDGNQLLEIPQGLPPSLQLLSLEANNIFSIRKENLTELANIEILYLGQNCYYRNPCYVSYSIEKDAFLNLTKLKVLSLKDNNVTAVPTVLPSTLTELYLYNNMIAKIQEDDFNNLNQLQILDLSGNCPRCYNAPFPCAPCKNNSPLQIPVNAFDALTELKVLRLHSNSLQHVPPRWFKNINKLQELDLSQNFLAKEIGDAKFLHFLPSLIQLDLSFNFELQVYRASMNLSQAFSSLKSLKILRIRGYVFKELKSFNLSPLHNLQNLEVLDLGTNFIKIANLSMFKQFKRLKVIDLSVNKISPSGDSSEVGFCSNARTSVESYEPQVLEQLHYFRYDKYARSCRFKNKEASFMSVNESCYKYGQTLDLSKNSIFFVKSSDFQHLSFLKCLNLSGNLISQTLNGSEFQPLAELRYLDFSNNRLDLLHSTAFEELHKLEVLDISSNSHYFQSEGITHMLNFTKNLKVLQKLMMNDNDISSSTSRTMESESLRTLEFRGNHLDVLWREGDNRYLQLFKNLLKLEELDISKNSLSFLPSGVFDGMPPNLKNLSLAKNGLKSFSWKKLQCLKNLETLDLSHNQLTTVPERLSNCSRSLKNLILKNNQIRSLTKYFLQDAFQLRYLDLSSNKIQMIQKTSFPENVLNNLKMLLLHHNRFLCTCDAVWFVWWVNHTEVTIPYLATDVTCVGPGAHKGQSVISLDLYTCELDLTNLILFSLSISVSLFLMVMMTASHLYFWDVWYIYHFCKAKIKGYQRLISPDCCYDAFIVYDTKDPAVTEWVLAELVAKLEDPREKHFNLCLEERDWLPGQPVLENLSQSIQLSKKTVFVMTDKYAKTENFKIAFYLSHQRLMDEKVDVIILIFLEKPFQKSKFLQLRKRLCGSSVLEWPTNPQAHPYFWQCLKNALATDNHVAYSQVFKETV
Description: Antagonist activity at human TLR7 expressed in HEK-Blue cells assessed as inhibition of CL075-induced NF-kappaB activation incubated for 1 hr followed by CL075-stimulation and measured after 24 hrs by quanti-blue SEAP assay. Format: cell-based.

The target of experiment [2] is T2, Toll-like receptor 8 (Homo sapiens) (UniProt Q9NR97).
T2 sequence (whole entry): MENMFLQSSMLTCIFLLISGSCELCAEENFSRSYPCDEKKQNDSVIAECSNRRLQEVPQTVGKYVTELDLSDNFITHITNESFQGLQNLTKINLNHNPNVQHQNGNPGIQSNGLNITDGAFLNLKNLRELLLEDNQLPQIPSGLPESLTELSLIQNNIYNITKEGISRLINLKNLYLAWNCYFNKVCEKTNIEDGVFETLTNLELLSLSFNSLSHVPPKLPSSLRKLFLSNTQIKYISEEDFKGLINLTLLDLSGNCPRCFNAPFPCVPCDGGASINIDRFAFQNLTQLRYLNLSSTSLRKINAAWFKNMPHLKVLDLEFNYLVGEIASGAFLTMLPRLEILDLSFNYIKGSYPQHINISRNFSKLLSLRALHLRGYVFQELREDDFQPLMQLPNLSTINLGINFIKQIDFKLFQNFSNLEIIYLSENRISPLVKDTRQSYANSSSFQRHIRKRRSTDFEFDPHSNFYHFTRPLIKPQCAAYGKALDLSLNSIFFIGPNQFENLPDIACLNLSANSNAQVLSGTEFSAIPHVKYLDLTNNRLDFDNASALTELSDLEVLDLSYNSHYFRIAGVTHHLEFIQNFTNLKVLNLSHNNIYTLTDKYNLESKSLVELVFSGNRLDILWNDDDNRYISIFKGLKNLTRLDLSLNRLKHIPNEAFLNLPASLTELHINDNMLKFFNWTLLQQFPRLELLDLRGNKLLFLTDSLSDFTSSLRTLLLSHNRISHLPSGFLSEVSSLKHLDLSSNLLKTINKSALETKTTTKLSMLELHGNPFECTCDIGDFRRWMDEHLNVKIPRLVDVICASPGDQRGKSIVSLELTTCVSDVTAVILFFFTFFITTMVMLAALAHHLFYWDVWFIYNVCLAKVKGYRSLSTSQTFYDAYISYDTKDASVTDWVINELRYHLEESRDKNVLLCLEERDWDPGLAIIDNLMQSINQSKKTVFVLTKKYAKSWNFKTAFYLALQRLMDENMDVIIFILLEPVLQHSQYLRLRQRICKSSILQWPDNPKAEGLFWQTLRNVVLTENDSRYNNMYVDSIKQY
In words: Antagonist activity at human TLR8 expressed in HEK-Blue cells assessed as reduction in CL075-induced NF-kappaB activation at 25 uM incubated for 1 hr followed by CL075-stimulation and measured after 24 hrs by quanti-blue SEAP assay relative to control. Format: cell-based.

Experiment [3] concerns the target Toll-like receptor 5 (Homo sapiens) (UniProt O60602). Description: […] at TLR5 in human THP1 cells assessed as inhibition of flagellin-induced IL-8 secretion preincubated for 1 hr followed by flagellin stimulation and measured after 24 hrs by ELISA. It counts as cell-based. (In general: An ELISA detects its analyte on a solid surface through an enzyme-linked reagent.)

Experiment [4] relates to THP-1. Description: Antiinflammatory activity in human THP1 cells assessed as reduction in CL075-induced TNF secretion at 10 to 25 uM preincubated for 1 hr followed by CL075-stimulation and measured after 4 hrs by ELISA relative to control. It counts as functional.
Experiment [5] has as its target T2, Toll-like receptor 8 (Homo sapiens). Description: Activation of human TLR8 expressed in HEK-Blue cells assessed as increase in NF-kappaB activation at 5 to 25 uM incubated for 24 hrs by quanti-blue SEAP assay. It counts as cell-based.
For experiment [6] the target is unchanged. Description: Antagonist activity at human TLR8 expressed in HEK-Blue cells assessed as reduction in CL075-induced NF-kappaB activation at 10 to 25 uM incubated for 1 hr followed by CL075-stimulation and measured after 24 hrs by quanti-blue SEAP assay relative to control. Format: cell-based.
Experiment [7] concerns the target Toll-like receptor 3 (Homo sapiens) (UniProt O15455). In words: […] at TLR3 in human THP1 cells assessed as inhibition of poly(I:C)-induced IL-8 secretion preincubated for 1 hr followed by poly(I:C)-stimulation and measured after 24 hrs by ELISA. It counts as cell-based.
Experiment [8] shares this target. In words: […] at TLR3 in human THP1 cells assessed as inhibition of poly(A:U)-induced IL-8 secretion preincubated for 1 hr followed by poly(A:U)-stimulation and measured after 24 hrs by ELISA. It counts as cell-based.
The target in experiment [9] is Toll-like receptor 4 (Homo sapiens) (UniProt O00206). In words: […] at TLR4 in human THP1 cells assessed as inhibition of LPS-induced IL-8 secretion preincubated for 1 hr followed by LPS-stimulation and measured after 24 hrs by ELISA. It counts as cell-based.

Active and inactive are the calls of the source. The calls are words filed in the database; no cut-off is given here. Where only a bound is given, the exact number is not on record here.

Toll-like receptor 3 (Homo sapiens), sequence (O15455 whole entry): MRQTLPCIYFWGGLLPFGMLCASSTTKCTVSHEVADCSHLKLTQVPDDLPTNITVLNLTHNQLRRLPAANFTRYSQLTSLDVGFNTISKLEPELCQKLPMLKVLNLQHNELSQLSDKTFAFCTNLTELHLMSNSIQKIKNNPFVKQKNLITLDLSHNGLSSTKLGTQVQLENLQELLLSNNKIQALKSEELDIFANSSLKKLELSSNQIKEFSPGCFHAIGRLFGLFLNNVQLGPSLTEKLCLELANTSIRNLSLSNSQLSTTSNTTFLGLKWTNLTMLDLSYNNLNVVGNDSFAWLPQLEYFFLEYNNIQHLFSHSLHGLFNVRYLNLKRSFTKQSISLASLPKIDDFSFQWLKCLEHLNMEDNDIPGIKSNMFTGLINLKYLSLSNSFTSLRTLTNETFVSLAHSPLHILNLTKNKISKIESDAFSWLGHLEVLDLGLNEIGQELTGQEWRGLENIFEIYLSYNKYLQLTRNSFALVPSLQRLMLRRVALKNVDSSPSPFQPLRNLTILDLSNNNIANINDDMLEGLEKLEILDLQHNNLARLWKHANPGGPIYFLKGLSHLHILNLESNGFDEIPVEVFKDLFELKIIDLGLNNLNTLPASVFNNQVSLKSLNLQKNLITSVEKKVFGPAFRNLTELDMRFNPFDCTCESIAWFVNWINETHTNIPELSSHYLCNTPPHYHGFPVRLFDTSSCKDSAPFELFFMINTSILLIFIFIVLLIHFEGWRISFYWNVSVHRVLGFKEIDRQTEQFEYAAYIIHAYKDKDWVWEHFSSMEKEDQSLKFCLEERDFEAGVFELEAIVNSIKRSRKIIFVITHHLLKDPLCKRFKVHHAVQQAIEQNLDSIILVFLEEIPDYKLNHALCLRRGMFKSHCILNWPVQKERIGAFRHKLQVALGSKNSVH
Toll-like receptor 5 (Homo sapiens), sequence (O60602 whole entry): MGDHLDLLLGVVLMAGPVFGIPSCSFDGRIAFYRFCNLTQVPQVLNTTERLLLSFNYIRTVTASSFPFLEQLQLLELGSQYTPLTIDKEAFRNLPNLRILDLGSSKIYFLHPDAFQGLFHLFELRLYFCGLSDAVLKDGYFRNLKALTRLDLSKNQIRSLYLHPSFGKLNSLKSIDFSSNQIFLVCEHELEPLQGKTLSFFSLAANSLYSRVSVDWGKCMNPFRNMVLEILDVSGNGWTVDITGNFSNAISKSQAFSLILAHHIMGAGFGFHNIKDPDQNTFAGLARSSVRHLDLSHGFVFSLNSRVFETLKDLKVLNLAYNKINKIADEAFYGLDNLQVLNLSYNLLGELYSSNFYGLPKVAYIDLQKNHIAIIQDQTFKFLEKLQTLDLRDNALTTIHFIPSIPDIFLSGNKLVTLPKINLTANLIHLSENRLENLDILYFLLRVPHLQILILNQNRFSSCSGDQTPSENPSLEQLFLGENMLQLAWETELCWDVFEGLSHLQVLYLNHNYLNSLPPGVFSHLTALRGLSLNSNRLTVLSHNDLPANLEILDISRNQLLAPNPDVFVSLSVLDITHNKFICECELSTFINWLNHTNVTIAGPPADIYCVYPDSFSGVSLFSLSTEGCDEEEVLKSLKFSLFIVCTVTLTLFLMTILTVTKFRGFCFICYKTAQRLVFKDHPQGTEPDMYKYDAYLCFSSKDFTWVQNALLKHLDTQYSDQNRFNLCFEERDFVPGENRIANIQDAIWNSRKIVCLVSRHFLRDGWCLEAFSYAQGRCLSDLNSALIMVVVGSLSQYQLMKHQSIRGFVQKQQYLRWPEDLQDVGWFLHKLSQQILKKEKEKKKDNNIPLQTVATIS
Toll-like receptor 4 (Homo sapiens), sequence (O00206 whole entry): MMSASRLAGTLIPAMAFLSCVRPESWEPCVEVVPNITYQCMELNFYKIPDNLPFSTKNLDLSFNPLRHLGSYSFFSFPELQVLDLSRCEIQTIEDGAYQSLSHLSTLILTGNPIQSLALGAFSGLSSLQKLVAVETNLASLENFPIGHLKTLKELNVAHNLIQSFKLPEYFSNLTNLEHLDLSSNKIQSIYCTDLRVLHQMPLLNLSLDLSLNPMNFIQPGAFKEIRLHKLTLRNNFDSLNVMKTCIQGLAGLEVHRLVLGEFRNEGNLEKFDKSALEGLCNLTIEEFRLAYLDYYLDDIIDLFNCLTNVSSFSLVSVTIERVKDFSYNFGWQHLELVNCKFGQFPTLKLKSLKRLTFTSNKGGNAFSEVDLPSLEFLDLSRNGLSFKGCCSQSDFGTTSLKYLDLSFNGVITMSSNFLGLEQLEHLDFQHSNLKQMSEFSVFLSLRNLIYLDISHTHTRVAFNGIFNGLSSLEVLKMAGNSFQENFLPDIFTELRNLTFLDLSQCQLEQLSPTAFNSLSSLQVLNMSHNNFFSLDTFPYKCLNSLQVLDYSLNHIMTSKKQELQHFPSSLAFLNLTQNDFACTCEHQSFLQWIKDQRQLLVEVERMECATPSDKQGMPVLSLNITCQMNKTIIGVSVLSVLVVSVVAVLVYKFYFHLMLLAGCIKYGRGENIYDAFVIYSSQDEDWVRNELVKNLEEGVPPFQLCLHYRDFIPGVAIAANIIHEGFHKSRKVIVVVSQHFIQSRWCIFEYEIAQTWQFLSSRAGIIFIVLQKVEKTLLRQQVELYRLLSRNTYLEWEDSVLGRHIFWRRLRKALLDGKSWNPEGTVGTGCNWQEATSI

For the compound `FC(F)(F)c1cc(-c2ccccc2)nc(NCc2cccs2)n1`, the inhibition entry in experiment [1], in [3], in experiment [7], in experiment [8] and in [9] was “inactive” each time. Besides, the inhibition (in general, how much of the control response was suppressed) in experiment [2] was under 50%; in experiment [6], 100%. Moreover, the “inhibition (INH)” value in experiment [4] is on record as 40%. Further, the result in experiment [5] was inactive.
As for `FC(F)(F)c1cc(-c2ccco2)nc(NCc2cccs2)n1`, the inhibition result in experiment [1], in [3], in [7], in experiment [8] and in [9] was “inactive” each time. In addition, the inhibition in experiment [2] was under 50%; in experiment [6] it was 50%. For the same compound, the “inhibition (INH)” value in [4] is 40%. Besides, in experiment [5], the result was inactive.
Regarding `CCCCNc1nc(-c2cccs2)cc(C(F)(F)F)n1`, the inhibition result in experiment [1], in [3], in experiment [7], in experiment [8] and in experiment [9] was “inactive” each time. Also, the inhibition in experiment [2] is under 50%; in [6], 100%. Further, the “inhibition (INH)” value in experiment [4] is over 60%. Moreover, in experiment [5], the outcome was inactive.
